The results in this text go back to patent US20110123530A1, “COMPOSITIONS AND METHODS FOR TREATING AND DIAGNOSING ASTHMA” (priority 2008, published 2011).

In one test the test system is subjects with asthma. In words: Randomized controlled trial of inhaled fluticasone or placebo: FEV1 by spirometry. In kind it is in vivo, human. Particulars: for Improvement in FEV1 as compared to subjects treated with placebo: inhaled fluticasone, 4 and 8 weeks; for ΔFEV1 with fluticasone at 4 weeks / ΔFEV1 with fluticasone 8 weeks: asthma, inhaled fluticasone 500 μg twice daily, mean ± SD. The method, then:
“Forced expiratory volume (FEV1)” refers to a standard test that measures the volume of air expelled in the first second of a forced expiration. […] To perform spirometry, a person inhales deeply, closes the mouth tightly around the tube and then exhales through the tubing while measurements are taken. The volume of air exhaled, and the length of time each breath takes is recorded and analyzed. Spirometry results are expressed as a percentage. Examples of normal spirometry results include a FEV1 of 75 percent of vital capacity after one second. An example of abnormal spirometry results include a reading of less than 80 percent of the normal predicted value. An abnormal result usually indicates the presence of some degree of obstructive lung disease such as asthma, emphysema or chronic bronchitis, or restrictive lung disease such as pulmonary fibrosis. For example, FEV1 values (percentage of predicted) can be used to classify the obstruction that may occur with asthma and other obstructive lung diseases like emphysema or chronic bronchitis: FEV1 […] to 79 percent predicted=mild obstruction, FEV1 40 percent to 59 percent predicted=moderate obstruction, and FEV1 less than 40 percent predicted=severe obstruction. Thirty-two of the subjects with asthma had also been enrolled in a double-blind randomized controlled clinical trial of inhaled fluticasone (500 μg, twice daily, N=19) or matched placebo (N=13) (ClinicalTrials.gov Identifier: NCT00187499). The trial was designed to determine the effects of inhaled steroid (fluticasone) on airway gene expression and to relate gene expression changes to improvements in lung function. The asthma subjects in the clinical trial had undergone baseline bronchoscopy and had been randomized to receive study medication before undergoing repeat bronchoscopy one week later after starting study drug. Asthma subjects continued study medication for a total of 8 weeks. Healthy control subjects and smokers were enrolled in one of three cross-sectional studies, which comprised two visits each, the first for characterization and the second for bronchoscopy 1 week later. Thirty-five subjects had adequate baseline bronchoscopy, and 32 had RNA available from epithelial brushings at both bronchoscopies. Lung function was measured (by spirometry) after 4 weeks and 8 weeks on study medication, and a final spirometry was completed after a one week run-out. Methods for bronchoscopy, epithelial brushing, bronchoalveaolar lavage, spirometry, and sample handling were identical across all studies. Bronchoalveolar lavage (BAL) was performed by instilling 4 aliquots of 50 ml of sterile saline into either the lingula or right middle lobe, with recovery by suction. Cell counts were performed using a hemocytometer and Turks solution (1% glacial acetic acid and 0.01% gentian violet in distilled H2O). Then BAL cell differentials were performed on cytocentrifuged preparations using the Shandon Kwik-Diff stain kit (Thermo Fisher Scientific, Waltham Mass.). Thirty-two of the subjects with asthma were also enrolled in a double-blind randomized controlled clinical trial of inhaled fluticasone (500 mcg BID) or matched placebo. In addition to the inclusion criteria above, these subjects were also required to have either asthma symptoms on 2 or more days per week, or β-agonist use on 2 or more days per week, or FEV1<85% predicted. Subjects in the clinical trial underwent a baseline visit and baseline bronchoscopy as described above, were randomized to receive study medication and underwent repeat bronchoscopy one week later. Then, they continued study medication for a total of 8 weeks with scheduled re-assessment of spirometry and methacholine challenge testing. […]

A further test deals with serum YKL-40. Kind of test: Serum YKL-40 immunoassay. Particulars: asthmatics on inhaled corticosteroids (N = 51) vs No ICS (N = 49). The test is classed as in vivo, human. The source says: To determine whether elevated levels of soluble periostin and CEA proteins were detectable in peripheral blood, we examined periostin and CEA in sera from 100 asthmatics and 48 healthy controls using immunoassays. In addition, we measured IgE and YKL-40, a serum marker previously described to be elevated in some asthmatics, in these same sera. […] However, in all cases, there was substantial overlap in serum levels of each biomarker between groups. As shown in Example 8, inhaled corticosteroid (ICS) treatment reduces the bronchial epithelial expression of periostin in asthmatics that have elevated periostin at baseline (see also [8]). Of the 100 asthmatics whose serum we examined, 51 were taking inhaled corticosteroids (ICS) and 49 were not. […] Nevertheless, asthmatics on ICS had higher median serum levels of IgE, periostin, and CEA than healthy controls (Table 13). As shown in FIG. 4 and Table 10, 21/23 asthmatics positive for the bronchial epithelial IL-13 signature (“IL-13 high”) had serum IgE levels greater than 100 IU/ml, although a proportion of “IL-13 low” asthmatics also had elevated IgE. […] As airway expression levels of periostin and CEACAM5 were highly correlated in “IL-13 high” asthmatics, we examined the correlation between serum periostin and CEA across all asthmatics (FIG. 13L).

Consider `CCC(=O)O[C@]1(C(=O)SCF)[C@H](C)C[C@H]2[C@@H]3C[C@H](F)C4=CC(=O)C=C[C@]4(C)[C@@]3(F)[C@@H](O)C[C@@]21C` [fluticasone, fluticasone propionate], for which the figures for the “Improvement in FEV1 as compared to subjects treated with placebo” value with subjects with asthma (IL-13 high asthma subphenotype) and in the test with subjects with asthma (IL-13 low asthma subphenotype) were “significant improvements in FEV1” and “did not”, respectively. The “Improvements in FEV1 after a one week run out period off drug” value with subjects with asthma (IL-13 high group, week 9) was “lost”. The results for the “ΔFEV1 with fluticasone at 4 weeks” value with subjects with asthma (IL13 Signature Low) and in the test on subjects with asthma (IL-13 Signature High) were 0.03 ± 0.12 L and 0.35 ± 0.2 L, respectively. The “ΔFEV1 with fluticasone 8 weeks” value is reported as 0.04 ± 0.12 L in the test with subjects with asthma (IL13 Signature Low) and 0.25 ± 0.23 L in the test on subjects with asthma (IL-13 Signature High). The “YKL-49, level of serum biomarker, median (range)” value in the test on serum YKL-40 was 72 (24-494) ng/ml.
